Test results as given in ChEMBL document CHEMBL1131993, “Binding affinities of 3-(3-phenylisoxazol-5-yl)methylidene-1-azabicycles to acetylcholine receptors” (Bioorg Med Chem Lett, 1999).

Tests used:
[1] = target: T1, Muscarinic acetylcholine receptor M1 (Homo sapiens) (UniProt P11229); experiment: Ability to displace [3H]N-methylscopolamine binding to M1 human recombinant muscarinic receptor in CHO cells at concentration 10 uM; type: cell-based
T1 sequence (whole entry): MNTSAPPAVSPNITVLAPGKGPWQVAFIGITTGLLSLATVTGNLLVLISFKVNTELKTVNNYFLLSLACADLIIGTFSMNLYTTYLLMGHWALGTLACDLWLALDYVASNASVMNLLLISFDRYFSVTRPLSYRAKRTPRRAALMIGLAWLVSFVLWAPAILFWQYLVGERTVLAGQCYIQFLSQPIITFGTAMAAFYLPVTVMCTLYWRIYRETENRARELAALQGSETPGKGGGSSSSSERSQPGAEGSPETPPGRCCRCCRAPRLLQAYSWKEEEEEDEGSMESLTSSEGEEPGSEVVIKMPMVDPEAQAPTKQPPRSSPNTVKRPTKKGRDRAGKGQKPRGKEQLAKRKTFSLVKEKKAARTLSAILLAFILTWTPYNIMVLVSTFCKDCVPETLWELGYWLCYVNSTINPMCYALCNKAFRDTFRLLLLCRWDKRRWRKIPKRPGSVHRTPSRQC

[2] = target: T1, Muscarinic acetylcholine receptor M1 (Homo sapiens); experiment: Ability to displace [3H]N-methylscopolamine binding to M1 human recombinant muscarinic receptor in CHO cells at concentration 1 uM; type: cell-based
[3] = target: T2, Neuronal acetylcholine receptor (Rattus norvegicus) (UniProt P04757+P09483+P12389+P12390+P12392+P43144+Q9JLB5+P12391+P43143+P20420+Q05941); experiment: Ability to displace [3H]cytisine binding to nicotinic receptor in synaptic membrane fractions from rat cerebral cortices at a concentration of 10 uM.; type: cell membranes
[4] = target: T3, Muscarinic acetylcholine receptor M1 (Homo sapiens, UniProt P11229); experiment: The compound was tested for its binding affinity against M1 human recombinant muscarinic receptor in CHO cells.; type: cell-based
T3 sequence (P11229 whole entry): T1 sequence (whole entry)

[5] = target: Muscarinic acetylcholine receptor M3 (Homo sapiens) (UniProt P20309); experiment: Ability to displace [3H]N-methylscopolamine binding to M3 human recombinant muscarinic receptor in CHO cells at concentration 10 uM; type: cell-based
Muscarinic acetylcholine receptor M3 (Homo sapiens), sequence (P20309 whole entry, looked up): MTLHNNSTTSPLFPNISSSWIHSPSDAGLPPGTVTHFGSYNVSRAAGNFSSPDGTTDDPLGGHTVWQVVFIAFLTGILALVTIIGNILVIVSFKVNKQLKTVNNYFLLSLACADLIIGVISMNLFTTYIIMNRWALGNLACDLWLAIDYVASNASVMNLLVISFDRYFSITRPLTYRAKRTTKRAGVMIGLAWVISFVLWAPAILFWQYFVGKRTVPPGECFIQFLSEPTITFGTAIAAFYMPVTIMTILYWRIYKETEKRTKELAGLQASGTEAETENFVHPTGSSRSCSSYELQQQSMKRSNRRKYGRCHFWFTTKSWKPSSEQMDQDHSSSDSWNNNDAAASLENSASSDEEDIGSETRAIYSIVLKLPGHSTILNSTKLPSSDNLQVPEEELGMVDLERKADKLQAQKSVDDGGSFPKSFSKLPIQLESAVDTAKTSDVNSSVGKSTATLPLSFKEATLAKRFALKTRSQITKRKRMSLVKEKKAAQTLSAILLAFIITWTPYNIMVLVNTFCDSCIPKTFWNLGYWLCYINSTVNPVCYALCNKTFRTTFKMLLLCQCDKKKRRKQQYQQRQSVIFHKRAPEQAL

[6] = target: T4, Muscarinic acetylcholine receptor M2 (Homo sapiens) (UniProt P08172); experiment: Ability to displace [3H]N-methylscopolamine binding to M2 human recombinant muscarinic receptor in CHO cells at concentration 10 uM; type: cell-based
T4 sequence (whole entry): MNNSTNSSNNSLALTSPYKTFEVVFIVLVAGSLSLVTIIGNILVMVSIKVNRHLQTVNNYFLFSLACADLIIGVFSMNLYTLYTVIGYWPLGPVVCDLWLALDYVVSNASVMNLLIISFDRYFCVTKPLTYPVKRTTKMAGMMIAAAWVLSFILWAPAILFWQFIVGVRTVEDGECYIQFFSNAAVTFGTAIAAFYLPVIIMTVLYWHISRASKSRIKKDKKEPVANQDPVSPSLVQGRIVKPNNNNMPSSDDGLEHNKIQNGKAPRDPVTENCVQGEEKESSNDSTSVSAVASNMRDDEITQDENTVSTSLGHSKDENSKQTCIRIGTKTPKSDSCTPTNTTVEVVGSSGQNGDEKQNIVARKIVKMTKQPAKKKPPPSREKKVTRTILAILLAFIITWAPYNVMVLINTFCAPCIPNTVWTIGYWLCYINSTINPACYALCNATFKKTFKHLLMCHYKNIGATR

[7] = target: T4, Muscarinic acetylcholine receptor M2 (Homo sapiens); experiment: Ability to displace [3H]N-methylscopolamine binding to M2 human recombinant muscarinic receptor in CHO cells at concentration 1 uM; type: cell-based
[8] = target: Muscarinic acetylcholine receptor M3 (Homo sapiens) (UniProt P20309); experiment: Ability to displace [3H]N-methylscopolamine binding to M3 human recombinant muscarinic receptor in CHO cells at concentration 1 uM; type: cell-based
[9] = target: T2, Neuronal acetylcholine receptor (Rattus norvegicus); experiment: Ability to displace [3H]cytisine binding to Nicotinic acetylcholine receptor in synaptic membrane fractions from rat cerebral cortices at a concentration of 10 uM.; type: cell membranes

Structure (SMILES) | inhibition [1] [%] | inhibition [2] [%] | inhibition [3] [%] | IC50 [4] [nM] | inhibition [5] [%] | inhibition [6] [%] | inhibition [7] [%] | inhibition [8] [%] | inhibition [9] [%]
COc1ccc(COc2ccc(-c3cc(/C=C4/CN5CCC4C5)on3)cc2)cc1 (stereo unspecified) | 66 | 39 | 0 |  |  |  |  |  | 
COc1ccc(COc2ccc(-c3cc(/C=C4\CN5CCC4CC5)on3)cc2)cc1 | 64 | 77 | 0 | 809 | 37 | 46 | 55 | 31 | 
COc1ccc(COc2ccc(-c3cc(/C=C4\CN5CCC4C5)on3)cc2OCc2ccc(OC)cc2)cc1 (stereo unspecified) | 100 | 87 | 0 | 114 | 98 | 95 | 77 | 88 | 
COc1ccc(-c2cc(/C=C3/CN4CCC3CC4)on2)cc1OC | 81 | 28 | 90 |  | 46 | 71 | 30 | 6 | 
Oc1ccc(-c2cc(/C=C3/CN4CCC3C4)on2)cc1 (stereo unspecified) | 26 | 0 | 81 |  | 11 | 3 | 6 | 0 | 
CC(C)(C)OC(=O)Nc1ccc(-c2cc(/C=C3/CN4CCC3C4)on2)cc1 (stereo unspecified) | 58 | 0 | 74 |  | 35 | 23 | 3 | 26 | 
COc1ccc(-c2cc(/C=C3\CN4CCC3CC4)on2)cc1 | 21 | 0 | 25 |  | 18 | 19 | 10 | 3 | 
Nc1ccc(-c2cc(/C=C3/CN4CCC3C4)on2)cc1 (stereo unspecified) | 44 | 7 | 49 |  | 10 | 4 | 1 | 0 | 
C(=C1\CN2CCC1CC2)/c1cc(-c2ccccc2)no1 | 51 | 7 | 48 |  | 48 | 38 | 0 | 12 | 
COc1ccc(-c2cc(/C=C3/CN4CCC3C4)on2)cc1 (stereo unspecified) | 45 | 8 |  |  | 0 | 19 | 15 | 0 | 58
CC(C)(C)OC(=O)Nc1ccc(-c2cc(/C=C3\CN4CCC3CC4)on2)cc1 | 59 | 12 | 64 | > 10 | 41 | 36 | 14 | 5 | 
COc1ccc(-c2cc(/C=C3\CN4CCC3C4)on2)cc1 (stereo unspecified) | 34 | 0 |  |  | 2 | 24 | 7 | 0 | 55
Oc1ccc(-c2cc(/C=C3\CN4CCC3C4)on2)cc1O (stereo unspecified) | 0 | 0 |  |  | 0 | 0 | 0 | 0 | 
COc1ccc(COc2ccc(-c3cc(/C=C4/CN5CCC4C5)on3)cc2OCc2ccc(OC)cc2)cc1 (stereo unspecified) | 91 | 39 | 0 | 1230 | 82 | 78 | 24 | 9 | 
Oc1ccc(-c2cc(/C=C3\CN4CCC3CC4)on2)cc1 | 2 | 0 | 72 |  | 0 | 7 | 0 | 0 | 
CC(C)(C)OC(=O)Nc1ccc(-c2cc(/C=C3\CN4CCC3C4)on2)cc1 (stereo unspecified) | 53 | 3 | 75 |  | 53 | 53 | 10 | 0 | 

Structure (SMILES) | inhibition [1] [%] | inhibition [2] [%] | inhibition [3] [%] | IC50 [4] [nM] | inhibition [5] [%] | inhibition [6] [%] | inhibition [7] [%] | inhibition [8] [%] | inhibition [9] [%]
Nc1ccc(-c2cc(/C=C3\CN4CCC3CC4)on2)cc1 | 4 | 0 |  |  | 0 | 5 | 0 | 0 | 77
CC(C)(C)OC(=O)Nc1ccc(-c2cc(/C=C3/CN4CCC3CC4)on2)cc1 | 95 | 57 | 43 | 806 | 87 | 67 | 16 | 31 | 
Fc1ccc(-c2cc(/C=C3/CN4CCC3CC4)on2)cc1 | 6 | 0 | 19 |  |  |  |  |  | 
Fc1ccc(-c2cc(/C=C3\CN4CCC3CC4)on2)cc1 | 0 | 0 | 19 |  | 10 | 22 | 13 | 0 | 
C(=C1/CN2CCC1CC2)/c1cc(-c2ccccc2)no1 | 13 | 0 |  |  | 17 | 26 | 3 | 5 | 
COc1ccc(COc2ccc(-c3cc(/C=C4\CN5CCC4C5)on3)cc2)cc1 (stereo unspecified) | 84 | 69 |  |  |  |  |  |  | 0
COc1ccc(-c2cc(/C=C3\CN4CCC3CC4)on2)cc1OC | 22 | 3 | 58 |  | 7 | 22 | 14 | 0 | 
Cc1ccc(-c2cc(/C=C3/CN4CCC3CC4)on2)cc1 | 7 | 7 | 70 |  | 15 | 14 | 2 | 3 | 
COc1ccc(COc2ccc(-c3cc(/C=C4/CN5CCC4CC5)on3)cc2OCc2ccc(OC)cc2)cc1 | 100 | 85 | 0 | 247 | 94 | 89 | 27 | 44 | 
Oc1ccc(-c2cc(/C=C3\CN4CCC3C4)on2)cc1 (stereo unspecified) | 0 | 0 | 36 |  | 20 | 10 | 1 | 10 | 
COc1ccc(COc2ccc(-c3cc(/C=C4\CN5CCC4CC5)on3)cc2OCc2ccc(OC)cc2)cc1 | 100 | 85 | 0 | 260 | 98 | 92 | 49 | 76 | 
COc1ccc(COc2ccc(-c3cc(/C=C4/CN5CCC4CC5)on3)cc2)cc1 | 93 | 89 | 0 | 250 | 52 | 83 | 26 | 22 | 
COc1ccc(-c2cc(/C=C3/CN4CCC3CC4)on2)cc1 | 79 | 23 | 68 |  | 63 | 63 | 16 | 14 | 
Oc1ccc(-c2cc(/C=C3/CN4CCC3C4)on2)cc1O (stereo unspecified) | 16 | 0 | 64 |  | 0 | 9 | 6 | 0 | 
Cc1ccc(-c2cc(/C=C3\CN4CCC3CC4)on2)cc1 | 0 | 0 | 26 |  | 0 | 13 | 0 | 0 | 
